Measurements reported in ChEMBL document CHEMBL1153249, “Conversion of 4-cyanomethyl-pyrazole-3-carboxamides into CB1 antagonists with lowered propensity to pass the blood-brain-barrier” (Bioorg Med Chem Lett, 2010).
≈ marks a conversion by molar mass, not a printed value. Calls of active or inactive are those of the source. The calls are words filed in the database; no cut-off is given here.

Experiments:
[1] = biological target: T1, Cannabinoid receptor 1 (Homo sapiens, UniProt P21554); experiment: Inverse agonist activity at human CB1 receptor expressed in CHO-K1 cells by GTPgammaS binding assay; assay type: functional, cell-based
[2] = Lipophilicity, log D by chromatography; assay type: physicochemical
[3] = Solubility of the compound; assay type: physicochemical
[4] = biological target: T1, Cannabinoid receptor 1; experiment: biochemical; assay type: cell-based, COS-7
Description: Displacement of [3H]CP-55940 from human CB1 receptor expressed in COS7 cells

[5] = biological target: T1, Cannabinoid receptor 1; assay type: functional, cell-based, CHO-K1
Description: Antagonist activity at human CB1 receptor expressed in CHO-K1 cells assessed as inhibition of CP-55940-induced GTPgammaS binding

[6] = biological target: T1, Cannabinoid receptor 1; experiment: Displacement of [3H]CP-55940 from human CB1 receptor expressed in CHO-K1 cells; assay type: cell-based
[7] = Ratio of drug level in plasma to brain in mouse at 10 mg/kg, po after 6 hrs; assay type: ADME, organism-based; parameters: dose 10 mg/kg, route oral; settings: in vivo
[8] = Selectivity for human CB1 receptor over CB2 receptor by GTPgammaS binding assay
[9] = Ratio of drug level in plasma to brain in rat at 5 mg/kg, po after 6 hrs; assay type: ADME, organism-based; parameters: dose 5 mg/kg, route oral; settings: in vivo
[10] = Oral bioavailability in rat; assay type: ADME, organism-based; settings: in vivo
[11] = Stability in rat microsomes assessed as compound remaining after 30 mins; assay type: ADME, Microsome; settings: read-out: Stability
[12] = tested on: Mus musculus; experiment: Reduction in WIN-55212-induced hypothermia in mouse at 1 mg/kg po pretreated 40 mins prior to WIN-55212 challenge measured after 1 hr; assay type: functional, organism-based; parameters: dose 1 mg/kg
[13] = tested on: Mus musculus; experiment: Reduction in body weight in diet-induced obese mouse at 10 mg/kg, po; assay type: functional; parameters: scale not given: the % may be the effect or the level left
[14] = Oral bioavailability in mouse; assay type: ADME, organism-based; settings: in vivo
[15] = tested on: Mus musculus; experiment: Reduction in WIN-55212-induced hypothermia in mouse at 10 mg/kg po pretreated 40 mins prior to WIN-55212 challenge measured after 1 hr; assay type: functional, organism-based; parameters: dose 10 mg/kg
[16] = Ratio of drug level in plasma to brain in po dosed diet-induced obese mouse after 6 hrs; assay type: ADME, organism-based; settings: in vivo
[17] = tested on: Mus musculus; experiment: Reduction in body weight in diet-induced obese mouse at 3 mg/kg, po; assay type: functional; parameters: scale not given: the % may be the effect or the level left
[18] = Ratio of drug level in plasma to brain in mouse at 10 mg/kg, po after 3 hrs; assay type: ADME, organism-based; parameters: dose 10 mg/kg, route oral; settings: in vivo
[19] = Stability in rat microsomes after 30 mins; assay type: ADME, Microsome; settings: 0.5 h
[20] = Stability in mouse microsomes after 30 mins; assay type: ADME, Microsome; settings: 0.5 h
[21] = Bioavailability in ip dosed rat; assay type: ADME, organism-based; settings: in vivo
[22] = Ratio of drug level in plasma to brain in rat at 10 mg/kg, ip after 6 hrs; assay type: ADME, organism-based; parameters: dose 10 mg/kg, route intraperitoneal; settings: in vivo

T1 sequence (P21554 whole entry): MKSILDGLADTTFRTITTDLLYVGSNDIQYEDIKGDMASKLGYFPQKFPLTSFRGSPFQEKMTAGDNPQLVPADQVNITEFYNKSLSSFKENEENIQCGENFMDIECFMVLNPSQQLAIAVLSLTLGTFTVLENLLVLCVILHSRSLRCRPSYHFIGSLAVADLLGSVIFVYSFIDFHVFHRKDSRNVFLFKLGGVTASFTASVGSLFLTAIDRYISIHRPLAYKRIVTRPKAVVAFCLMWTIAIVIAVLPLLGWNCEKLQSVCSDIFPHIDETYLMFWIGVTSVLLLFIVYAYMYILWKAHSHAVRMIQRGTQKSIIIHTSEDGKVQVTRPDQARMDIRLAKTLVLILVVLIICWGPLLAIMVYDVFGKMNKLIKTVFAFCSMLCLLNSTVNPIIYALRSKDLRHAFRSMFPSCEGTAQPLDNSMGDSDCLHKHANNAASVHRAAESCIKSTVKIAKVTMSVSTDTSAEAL

| IC50 [1] [nM] | chromatographic logD [2] | solubility ([3]; read-out: solubility) [µM] | IC50 [5] [nM] | IC50 [6] [nM] | SMILES | also measured |
| --- | --- | --- | --- | --- | --- | --- |
| 2.1 | 2.5 | 290 (≈ 165 µg/mL) |  |  | NC(=O)Cc1c(C(=O)N2CCC(O)(c3ccc(F)cn3)CC2)nn(-c2ccccc2Cl)c1-c1ccc(Cl)cc1 | IC50 [4]: 5.5 nM |
| 1.8 |  |  |  |  | N#CCc1c(C(=O)NN2CCCCC2)nn(-c2ccccc2Cl)c1-c1ccc(Cl)cc1 |  |
| 0.4 |  |  | 0.93 |  | N=C(N)Cc1c(C(=O)NN2CCCCC2)nn(-c2ccccc2Cl)c1-c1ccc(Cl)cc1 |  |
| 0.3 | 2.6 | 1.1 (≈ 0.589 µg/mL) | 0.71 | 1.4 | NC(=O)Cc1c(C(=O)N2CCC(c3ncccn3)CC2)nn(-c2ccccc2Cl)c1-c1ccc(Cl)cc1 |  |
|  |  |  | 26 |  | N=C(N)Cc1c(C(=O)NN2CCOCC2)nn(-c2ccccc2Cl)c1-c1ccc(Cl)cc1 |  |
| 2 | 2.3 | 400 (≈ 220 µg/mL) | 3.6 | 1.9 | NC(=O)Cc1c(C(=O)N2CCC(O)(c3ccccn3)CC2)nn(-c2ccccc2Cl)c1-c1ccc(Cl)cc1 | Ratio [7]: 10.2; Selectivity ratio [8]: 1000 |
| 1.4 | 2.8 |  | 1.2 | 4.6 | N#Cc1ccc(N2CCN(C(=O)c3nn(-c4ccccc4Cl)c(-c4ccc(Cl)cc4)c3CC(N)=O)CC2)nc1 |  |
| 0.59 |  |  | 9.7 |  | N=C(N)Cc1c(C(=O)N2CCC(c3ncccn3)CC2)nn(-c2ccccc2Cl)c1-c1ccc(Cl)cc1 |  |
| 0.79 |  |  | 1.2 |  | N=C(N)Cc1c(C(=O)NCc2ccc(F)cc2)nn(-c2ccccc2Cl)c1-c1ccc(Cl)cc1 |  |
| 1.7 | 2.4 | 200 (≈ 96.1 µg/mL) | 3 | 0.55 | Cc1ccncc1NC(=O)c1nn(-c2ccccc2Cl)c(-c2ccc(Cl)cc2)c1CC(N)=O | Ratio [9]: 1.2; bioavailability [10]: 39%; remaining at 0.5 h [11]: 63% |
| 0.49 | 2.9 | 16 (≈ 8.18 µg/mL) | 0.66 |  | N#CN1CCC(CNC(=O)c2nn(-c3ccccc3Cl)c(-c3ccc(Cl)cc3)c2CC(N)=O)CC1 | IC50 [4]: 0.34 nM |
| 0.82 | 2.6 | 4.5 (≈ 2.13 µg/mL) | 1.4 | 1.8 | NC(=O)Cc1c(C(=O)NN2CCCCC2)nn(-c2ccccc2Cl)c1-c1ccc(Cl)cc1 | bioavailability [10]: 2%; remaining at 0.5 h [11]: 72% |
| 1.7 | 1.8 |  | 7 | 7.9 | NC(=O)Cc1c(C(=O)NN2CCOCC2)nn(-c2ccccc2Cl)c1-c1ccc(Cl)cc1 |  |
|  |  |  |  |  | Cc1c(C(=O)NN2CCCCC2)nn(-c2ccc(Cl)cc2Cl)c1-c1ccc(Cl)cc1 [RIMONABANT] | solubility [3]: 10 µM (≈ 4.64 µg/mL); Activity [12]: Active; Activity [13]: 14.5 |
| 1.2 | 2.3 | 80 (≈ 43.2 µg/mL) |  | 3.7 | NC(=O)Cc1c(C(=O)NC2CCN(C(=O)C3CC3)CC2)nn(-c2ccccc2Cl)c1-c1ccc(Cl)cc1 | Ratio [7]: 6.1 |
| 0.1 | 2.8 | 75 (≈ 42.6 µg/mL) | 0.19 | 2.6 | NC(=O)Cc1c(C(=O)N2CCC(O)(c3ccc(F)cc3)CC2)nn(-c2ccccc2Cl)c1-c1ccc(Cl)cc1 | Ratio [7]: 10.2; bioavailability [10]: 70%; bioavailability [14]: 100%; Selectivity ratio [8]: 1000; Activity [15]: inactive; Ratio [16]: 13; Activity [17]: 5.6%; Activity [13]: 15.1% |
|  |  |  | 21 |  | N=C(Cc1c(C(=O)N2CCC(c3ncccn3)CC2)nn(-c2ccccc2Cl)c1-c1ccc(Cl)cc1)NO |  |
|  |  |  | 1.9 |  | N=C(N)Cc1c(C(=O)N2CCC(O)(c3ccc(F)cc3)CC2)nn(-c2ccccc2Cl)c1-c1ccc(Cl)cc1 |  |
|  |  |  | 0.54 |  | N=C(Cc1c(C(=O)N2CCC(c3ccccc3F)CC2)nn(-c2ccccc2Cl)c1-c1ccc(Cl)cc1)NO |  |
|  |  |  | 1.1 |  | N=C(Cc1c(C(=O)Nc2ccc(F)cc2)nn(-c2ccccc2Cl)c1-c1ccc(Cl)cc1)NO |  |
| 1.3 |  |  | 1.8 |  | N=C(Cc1c(C(=O)NN2CCCCC2)nn(-c2ccccc2Cl)c1-c1ccc(Cl)cc1)NO | Ratio [18]: 1.2 |
|  | 1.6 | 500 (≈ 298 µg/mL) | 30 |  | NC(=O)Cc1c(C(=O)N2CCC(C(=O)O)(c3ccc(F)cn3)CC2)nn(-c2ccccc2Cl)c1-c1ccc(Cl)cc1 | bioavailability [14]: 4% |
|  |  |  | 1.5 |  | N=C(N)Cc1c(C(=O)Nc2ccc(F)cc2)nn(-c2ccccc2Cl)c1-c1ccc(Cl)cc1 | Stability [19]: Stable; Stability [20]: Stable; bioavailability [21]: 19%; Ratio [22]: 3.2 |
|  |  |  | 51 |  | N=C(Cc1c(C(=O)NN2CCOCC2)nn(-c2ccccc2Cl)c1-c1ccc(Cl)cc1)NO |  |
|  |  |  | 0.51 |  | NC(=O)Cc1c(C(=O)N2CCC(c3ccccc3F)CC2)nn(-c2ccccc2Cl)c1-c1ccc(Cl)cc1 |  |
| 0.11 | 2.7 | 105 (≈ 57.7 µg/mL) | 0.26 |  | NC(=O)Cc1c(C(=O)N2CCC(O)(c3ccccc3)CC2)nn(-c2ccccc2Cl)c1-c1ccc(Cl)cc1 | IC50 [4]: 2.9 nM |
| 10 | 1.5 | 425 (≈ 246 µg/mL) | 16 | 23 | NC(=O)Cc1c(C(=O)N2CCC(C(=O)O)(c3ccccn3)CC2)nn(-c2ccccc2Cl)c1-c1ccc(Cl)cc1 |  |
| 0.11 | 3.4 | 9 (≈ 5.03 µg/mL) | 0.23 | 0.78 | N#CC1(c2ccccc2)CCN(C(=O)c2nn(-c3ccccc3Cl)c(-c3ccc(Cl)cc3)c2CC(N)=O)CC1 |  |
|  |  |  | 3.8 |  | N#CCc1c(C(=O)N2CCC(c3ncccn3)CC2)nn(-c2ccccc2Cl)c1-c1ccc(Cl)cc1 |  |
